Experimental data reported in PubChem BioAssay AID743474 (The Scripps Research Institute Molecular Screening Center, 2014).
Calls of active or inactive are those of the source. No rule for the calls is given here.

Tested on: CCHF vOTU
Experiment: CCHF vOTU protease inhibitors, late-stage follow-up, biochemical, fluorescence, Ub-R110 substrate (AID 743474)
Settings: Recombinant CCHF vOTU, Ub-R110 fluorescence cleavage, hits give high values

For O=C1OC(Nc2cc(Br)cc3cccnc23)c2ccccc21 (stereo not drawn), the inhibition (Assay 1, Ub-R110 substrate, at 5.44 µM) was 6% (inactive).

COc1cc(C(=O)c2nccc3cc(OC)c(OC)cc23)c([N+](=O)[O-])cc1OC was tested, and the inhibition (Assay 1, Ub-R110 substrate, at 4.04 µM) was 0.3% (inactive).

CC1(C)C=C2C(=NN(c3ccccc3)C(N)=C2C#N)CO1 was tested, and the inhibition (Assay 1, Ub-R110 substrate, at 23.49 µM) was 22.2%.

With O=C(c1ccco1)[C@@H]1[C@@H]2C(=O)N(c3ccc(Br)cc3)C(=O)[C@@H]2C2c3ccccc3C=CN21 (stereo partly drawn) the inhibition (Assay 1, Ub-R110 substrate, at 11.01 µM) was 16.9% (inactive).

For COc1cc(NC(=O)COC(=O)c2ccc([N+](=O)[O-])s2)cc(OC)c1OC, the inhibition (Assay 1, Ub-R110 substrate, at 21.72 µM) was 15.2% (inactive).

Work on COc1ccccc1NC(=O)COC(=O)c1ccc([N+](=O)[O-])s1 yielded an inhibition (Assay 1, Ub-R110 substrate, at 35.07 µM) of 26.7%.

For O=C(COC(=O)c1ccc([N+](=O)[O-])s1)Nc1ccc(F)cc1, the inhibition (Assay 1, Ub-R110 substrate, at 26.34 µM) was 21.3%.

CC(=O)c1ccc(NC(=S)Nc2cccc3cnccc23)cc1 was tested, and the inhibition (Assay 1, Ub-R110 substrate, at 7.69 µM) was 4.4% (inactive).

CCOC(=O)N=Nc1c2ccccc2c2nc3no[nH]c3nc12 was tested, and the inhibition (Assay 1, Ub-R110 substrate, at 7.75 µM) was 33.2%.

For O=C1C=C(Nc2ccccc2)c2ccccc2C1=O, the inhibition (Assay 1, Ub-R110 substrate, at 15.55 µM) was 21.8%.

For NS(=O)(=O)c1ccc(NC(=O)COC(=O)c2ccc([N+](=O)[O-])s2)cc1, the inhibition (Assay 1, Ub-R110 substrate, at 29.01 µM) was 13.3% (inactive).

For CCn1nc(/C=C/c2ccccc2)nc2c(=O)n(C)c(=O)nc1-2, the inhibition (Assay 1, Ub-R110 substrate, at 0.49 µM) was 98%.

COc1ccc2noc3c2c1C(=O)c1ccccc1-3 was tested, and the inhibition (Assay 1, Ub-R110 substrate, at 6.28 µM) was 22.7%.

Cn1nc(-c2ccccn2)nc2c(=O)n(C)c(=O)nc1-2 was tested, and the inhibition (Assay 1, Ub-R110 substrate, at 1.16 µM) was 97.3%.

Cc1ccccc1-c1cc2c(nn1)-c1ccccc1C2=O was tested, and the inhibition (Assay 1, Ub-R110 substrate, at 2.23 µM) was 3.27% (inactive) and the inhibition (Assay 2, Ub-R110 substrate, at 4.46 µM) was 15.3% (inactive).

In the case of Cc1c(Cl)cnc(NC(=O)COC(=O)c2ccc([N+](=O)[O-])s2)c1Cl, the inhibition (Assay 1, Ub-R110 substrate, at 20.44 µM) was 40.7%.

For O=C1Cc2ccccc2C(=O)N1Cc1ccccc1, the inhibition (Assay 1, Ub-R110 substrate, at 1.31 µM) was 49.5%.

O=C(O)CSc1cc(NS(=O)(=O)c2cccc([N+](=O)[O-])c2)c2ccccc2c1O was tested, and the inhibition (Assay 1, Ub-R110 substrate, at 7.61 µM) was 0.5% (inactive).

O=C1Cc2ccccc2C(=O)N1 showed an inhibition (Assay 1, Ub-R110 substrate, at 0.6 µM) of 57.9%.

In the case of CCc1cc[n+](C2=C(NS(=O)(=O)c3cccs3)C(=O)c3ccccc3C2=O)cc1, the inhibition (Assay 1, Ub-R110 substrate, at 14.16 µM) was 64.3%.

For CC1CCCC(NC(=O)COC(=O)c2ccc([N+](=O)[O-])s2)C1C (stereo not drawn), the inhibition (Assay 1, Ub-R110 substrate, at 31.32 µM) was 14.7% (inactive).

O=C(NC1=C(NC2CCS(=O)(=O)C2)C(=O)c2ccccc2C1=O)c1ccccc1 (stereo not drawn) showed an inhibition (Assay 1, Ub-R110 substrate, at 14.2 µM) of 49.8%.

In the case of O=C1Cc2ccccc2C(=O)N1CCc1ccccc1, the inhibition (Assay 1, Ub-R110 substrate, at 1.51 µM) was 3.44% (inactive) and the inhibition (Assay 2, Ub-R110 substrate, at 3.02 µM) was 10.7% (inactive).

In the case of O=C(OCc1nnc(-c2ccccc2)o1)c1ccc([N+](=O)[O-])s1, the inhibition (Assay 1, Ub-R110 substrate, at 26.04 µM) was 20.8%.

CC1COCC(C)N1C1=C(Cl)C(=O)c2ccccc2C1=O (stereo not drawn) gave an inhibition (Assay 1, Ub-R110 substrate, at 14.67 µM) of 31.2%.

With Cc1ccc2c(c1C)-c1c(ccc(C)c1C)C(=O)C2=O the inhibition (Assay 1, Ub-R110 substrate, at 18.9 µM) was 62.5%.

With Cc1ccc(N2C(=O)[C@@H]3[C@H](C2=O)C2c4ccccc4C=CN2[C@@H]3C(=O)c2ccco2)cc1 (stereo partly drawn) the inhibition (Assay 1, Ub-R110 substrate, at 5.2 µM) was 33.9%.

In the case of O=c1[nH]c(Nc2ccccc2)cc2cc(Br)ccc12, the inhibition (Assay 1, Ub-R110 substrate, at 1.45 µM) was 19.9% (inactive).

In the case of O=C(COC(=O)c1ccc([N+](=O)[O-])s1)NCc1ccc(F)cc1, the inhibition (Assay 1, Ub-R110 substrate, at 40.58 µM) was 30.5%.

For CCC(CNc1cc(OC)cc2cccnc12)NC1CCCCC1 (stereo not drawn), the inhibition (Assay 1, Ub-R110 substrate, at 6.96 µM) was 3.8% (inactive).

With NS(=O)(=O)c1ccc(NC2=CC(=O)C(=O)c3ccccc32)cc1 the inhibition (Assay 1, Ub-R110 substrate, at 11.51 µM) was 21.1%.

For COC1=C(N)C(=O)c2nc(C)ccc2C1=O, the inhibition (Assay 1, Ub-R110 substrate, at 4.98 µM) was 16.6% (inactive).

With O=S(=O)(Nc1cc2nc3ccccc3nc2n1Cc1ccccc1)c1ccc(Cl)cc1 the inhibition (Assay 1, Ub-R110 substrate, at 7.6 µM) was 5% (inactive).

O=C(/C=C/c1ccc(O)cc1)c1ccc(NC2=C(N3CCCCC3)C(=O)c3ccccc3C2=O)cc1 showed an inhibition (Assay 1, Ub-R110 substrate, at 10.17 µM) of 23.2%.

Work on O=C(NC1=CC(=O)c2ccccc2C1=O)c1ccccc1 yielded an inhibition (Assay 1, Ub-R110 substrate, at 12.37 µM) of 55.6%.

In the case of CN(C1=C(NC(=O)c2ccccc2)C(=O)c2ccccc2C1=O)C1CCS(=O)(=O)C1 (stereo not drawn), the inhibition (Assay 1, Ub-R110 substrate, at 9.59 µM) was 4.36% (inactive) and the inhibition (Assay 2, Ub-R110 substrate, at 19.18 µM) was 55.5%.

Cc1ccc(NC2=CC(=O)C(=O)c3ccccc32)cc1 was tested, and the inhibition (Assay 1, Ub-R110 substrate, at 12.24 µM) was 22.1%.

Compound COC(CNC(=O)c1ccc2c3c(onc13)-c1ccccc1C2=O)OC has an inhibition (Assay 1, Ub-R110 substrate, at 24.19 µM) of 52.5%.

In the case of COc1cc(Br)c(C(=O)c2nccc3cc(OC)c(OC)cc23)cc1OC, the inhibition (Assay 1, Ub-R110 substrate, at 1.13 µM) was 14.4% (inactive).

In the case of O=C(COC(=O)c1ccc([N+](=O)[O-])s1)Nc1ncc(C(F)(F)F)cc1Cl, the inhibition (Assay 1, Ub-R110 substrate, concentration not given here) was 41.1%.
